Assay results published in ChEMBL document CHEMBL1135547, “Anticholinesterase activity of compounds related to geneserine tautomers. N-Oxides and 1,2-oxazines” (J Med Chem, 2002).

What was measured:
[1] = biological target: Acetylcholinesterase (Homo sapiens, UniProt P22303)
Description: Ex vivo inhibition of human erythrocyte Acetylcholinesterase.

[2] = biological target: Cholinesterase (Homo sapiens, UniProt P06276)
Chain of Cholinesterase (P06276 whole entry): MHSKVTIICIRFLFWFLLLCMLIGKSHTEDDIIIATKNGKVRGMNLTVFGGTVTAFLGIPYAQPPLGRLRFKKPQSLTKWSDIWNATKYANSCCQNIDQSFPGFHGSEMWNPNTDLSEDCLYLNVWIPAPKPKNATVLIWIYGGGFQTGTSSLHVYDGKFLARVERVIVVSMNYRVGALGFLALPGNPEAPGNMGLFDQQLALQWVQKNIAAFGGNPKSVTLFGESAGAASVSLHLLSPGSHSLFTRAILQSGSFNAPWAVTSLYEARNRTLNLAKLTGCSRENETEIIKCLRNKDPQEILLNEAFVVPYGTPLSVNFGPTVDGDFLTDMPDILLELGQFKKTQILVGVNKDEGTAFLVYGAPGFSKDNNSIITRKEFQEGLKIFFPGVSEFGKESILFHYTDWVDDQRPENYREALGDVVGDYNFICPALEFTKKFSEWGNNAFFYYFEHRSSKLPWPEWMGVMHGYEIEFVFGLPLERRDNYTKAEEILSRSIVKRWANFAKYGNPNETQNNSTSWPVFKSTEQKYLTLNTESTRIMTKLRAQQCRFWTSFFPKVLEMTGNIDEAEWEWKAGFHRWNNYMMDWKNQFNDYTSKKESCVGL
Description: Ex vivo inhibition of human plasma Butyrylcholinesterase.

Chain of Acetylcholinesterase (P22303 whole entry): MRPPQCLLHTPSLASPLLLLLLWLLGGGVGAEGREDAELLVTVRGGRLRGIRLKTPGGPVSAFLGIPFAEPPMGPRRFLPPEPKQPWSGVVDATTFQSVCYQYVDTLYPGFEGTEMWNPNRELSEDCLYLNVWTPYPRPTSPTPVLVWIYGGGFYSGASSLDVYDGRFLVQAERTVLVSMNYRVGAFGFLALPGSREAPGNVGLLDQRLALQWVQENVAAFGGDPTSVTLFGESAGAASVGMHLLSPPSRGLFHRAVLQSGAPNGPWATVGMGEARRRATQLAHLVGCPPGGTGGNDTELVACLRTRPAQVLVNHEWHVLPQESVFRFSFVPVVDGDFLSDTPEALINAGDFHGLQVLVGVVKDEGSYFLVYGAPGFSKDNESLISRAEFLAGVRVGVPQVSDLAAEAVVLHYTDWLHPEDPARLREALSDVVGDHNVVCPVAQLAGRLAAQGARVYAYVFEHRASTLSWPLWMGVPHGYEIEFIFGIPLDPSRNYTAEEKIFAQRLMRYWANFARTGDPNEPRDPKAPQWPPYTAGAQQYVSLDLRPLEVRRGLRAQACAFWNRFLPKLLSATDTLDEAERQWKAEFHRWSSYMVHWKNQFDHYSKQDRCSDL

Q: With `CC(C)c1ccc(NC(=O)Oc2ccc3c(c2)[C@]2(C)CCN(C)O[C@@H]2N3C)cc1` as the compound, how does the IC50 [1] read?
A: > 10 µM

Q: And the IC50 [2]?
A: 0.025 µM

Q: Which IC50 [1] does the source give for `CCCCCCCNC(=O)Oc1ccc2c(c1)[C@]1(C)CCN(C)[C@@H]1N2C` [EPTASTIGMINE] here?
A: 0.022 µM

Q: What about the IC50 [2] of the same compound?
A: 0.005 µM

Q: What does the source list for `Cc1ccccc1NC(=O)Oc1ccc2c(c1)[C@]1(C)CC[N@@+](C)([O-])[C@@H]1N2C`?
A: IC50 [1]: 0.18 µM; IC50 [2]: > 10 µM

Q: Which IC50 [2] does the source give for `CNC(=O)Oc1ccc2c(c1)[C@]1(C)CCN(C)O[C@@H]1N2C` [ESERIDINE] here?
A: 0.012 µM

Q: Which IC50 [2] does the source give for `C/C=C1\[C@H]2C=C(C)C[C@]1(N)c1ccc(=O)[nH]c1C2` [HUPERZINE A] here?
A: > 10 µM

Q: Which IC50 [1] does the source give for `CNC(=O)Oc1ccc2c(c1)[C@]1(C)CC[N@@+](C)([O-])[C@@H]1N2C` here?
A: 0.1 µM

Q: And the IC50 [2]?
A: 0.66 µM

Q: `CCc1ccccc1NC(=O)Oc1ccc2c(c1)[C@]1(C)CC[N@@+](C)([O-])[C@@H]1N2C` was tested. Which IC50 [1] did it give?
A: 0.125 µM

Q: What about the IC50 [2] of the same compound?
A: 1.7 µM

Q: `CN1CC[C@@]2(C)c3cc(OC(=O)Nc4ccccc4)ccc3N(C)[C@H]2O1` was tested. Which IC50 [1] did it give?
A: 0.13 µM

Q: And the IC50 [2]?
A: 0.815 µM

Q: `Cc1ccccc1NC(=O)Oc1ccc2c(c1)[C@]1(C)CCN(C)O[C@@H]1N2C` was tested. Which IC50 [1] did it give?
A: 0.175 µM

Q: What about the IC50 [2] of the same compound?
A: 1.57 µM

Q: Which IC50 [1] does the source give for `CN1c2ccc(OC(=O)Nc3ccccc3)cc2[C@]2(C)CC[N@@+](C)([O-])[C@H]12` here?
A: 0.2 µM

Q: And the IC50 [2]?
A: > 10 µM

Q: For `CC(C)c1ccc(NC(=O)Oc2ccc3c(c2)[C@]2(C)CC[N@@+](C)([O-])[C@@H]2N3C)cc1`, which IC50 [1] is on record?
A: > 10 µM

Q: What about the IC50 [2] of the same compound?
A: 5.2 µM

Q: What does the source list for `CCc1ccccc1NC(=O)Oc1ccc2c(c1)[C@]1(C)CCN(C)O[C@@H]1N2C` [GANSTIGMINE]?
A: IC50 [1]: 0.065 µM; IC50 [2]: 0.31 µM
